Laboratory results from US8618094B2, “Fused substituted aminopyrrolidine derivative” (Daiichi Sankyo Company, Limited, priority 2007, dated 2013).
In brackets after ≈: the same amount, converted by molar mass. Read-outs that look alike come from different tables or passages of the source.

Assays:
Test in all cases: Antibacterial activity (MIC), standard method of the Japanese Society of Chemotherapy
Format in all cases: cell-based
[1] = test system: S. epidermidis 56500; conditions: Staphylococcus epidermidis
Description: (§1) Antibacterial activity of the compounds of the present invention was measured in accordance with the standard method specified by the Japanese Society of Chemotherapy.

[2] = test system: P. mirabilis 08103; conditions: Proteus mirabilis
Description: as §1

[3] = test system: E. faecalis 19433; conditions: Enterococcus faecalis
Description: as §1

[4] = test system: E. cloacae 03400; conditions: Enterobacter cloacae
Description: as §1

[5] = test system: M(B). Caterrhalis ATCC25238
Description: as §1

[6] = test system: P. aeruginosa PAO1; conditions: Pseudomonas aeruginosa
Description: as §1

[7] = test system: S. aureus 870307; conditions: Staphylococcus aureus
Description: as §1

[8] = test system: E. coli NIHJ; conditions: Escherichia coli
Description: as §1

[9] = test system: S. aureus FDA 209-P; conditions: Staphylococcus aureus, FDA209
Description: as §1

[10] = test system: S. marcescens 10100; conditions: Serratia marcescens
Description: as §1

[11] = test system: S. pneumoniae 104835; conditions: Streptococcus pneumoniae
Description: as §1

[12] = test system: S. pneumoniae J24; conditions: Streptococcus pneumoniae
Description: as §1

[13] = test system: S. pyogenes JCM5674(ATCC12344); conditions: Streptococcus pyogenes
Description: as §1

[14] = test system: H. influenzae ATCC49247; conditions: Haemophilus influenzae
Description: as §1

[15] = test system: K. pneumoniae TYPE 1; conditions: Klebsiella pneumoniae, TYPE1
Description: as §1

[16] = M(B). Caterrhalis ATCC25238 (first half of Table 2), read-out: MIC, M(B). Caterrhalis ATCC25238
[17] = H. influenzae ATCC49247 (first half of Table 2), read-out: MIC, H. influenzae ATCC49247
[18] = M(B). Caterrhalis [sic] ATCC49247 (Table 2), read-out: MIC, M(B). Caterrhalis ATCC49247
[19] = ATCC 25238 / ATCC 49247, H. influenzae ATCC25238 as printed (second half of Table 2), read-out: MIC, H. influenzae ATCC25238

Row | SMILES | MIC [1] [µg/mL] | MIC [2] [µg/mL] | MIC [3] [µg/mL] | MIC [4] [µg/mL] | MIC [5, 16] [µg/mL] | MIC [6] [µg/mL] | MIC [7] [µg/mL] | MIC [8] [ng/mL] | MIC [9] [µg/mL] | MIC [10] [µg/mL] | MIC [11] [µg/mL] | MIC [12] [µg/mL] | MIC [13] [µg/mL] | MIC [14, 17] [ng/mL] | MIC [15] [µg/mL] | MIC [5, 18] [µg/mL] | MIC [14, 19] [ng/mL]
1 | COc1c(N2CC3=CCCC3(N)C2)c(F)cc2c(=O)c(C(=O)O)cn([C@@H]3C[C@@H]3F)c12 (single isomer, unassigned) [Example 25] | 0.1 (≈ 0.24 µM) | 0.025 (≈ 0.0599 µM) | 0.2 (≈ 0.479 µM) | 0.012 (≈ 0.0287 µM) | 0.025 (≈ 0.0599 µM) | 0.39 (≈ 0.934 µM) | 0.39 (≈ 0.934 µM) | 12 (≈ 0.0287 µM) | 0.025 (≈ 0.0599 µM) | 0.1 (≈ 0.24 µM) | 0.39 (≈ 0.934 µM) | 0.05 (≈ 0.12 µM) | 0.05 (≈ 0.12 µM) | 6 (≈ 0.0144 µM) | 0.05 (≈ 0.12 µM) |  | 
2 | COc1c(N2CC3(N)CCC4CC43C2)c(F)cc2c(=O)c(C(=O)O)cn([C@@H]3C[C@@H]3F)c12 (single isomer, unassigned) [Example 27] | 0.05 (≈ 0.116 µM) | 0.05 (≈ 0.116 µM) | 0.1 (≈ 0.232 µM) | 0.025 (≈ 0.0579 µM) | 0.05 (≈ 0.116 µM) | 0.78 (≈ 1.81 µM) | 0.2 (≈ 0.464 µM) | 12 (≈ 0.0278 µM) | 0.012 (≈ 0.0278 µM) | 0.2 (≈ 0.464 µM) | 0.2 (≈ 0.464 µM) | 0.025 (≈ 0.0579 µM) | 0.05 (≈ 0.116 µM) | 6 (≈ 0.0139 µM) | 0.1 (≈ 0.232 µM) |  | 
3 | COc1c(N2C[C@H]3[C@@H](C)C[C@@]3(N)C2)c(F)cc2c(=O)c(C(=O)O)cn([C@@H]3C[C@@H]3F)c12 [Example 2, 7-{(1S,5R,6S)-1-Amino-6-methyl-3-azabicyclo[3.2.0]hept-3-yl}-6-fluoro-1-[(1R,2S)-2-fluorocyclopropyl]-1,4-dihydro-8-methoxy-4-oxoquinoline-3-carboxylic acid] | 0.012 (≈ 0.0286 µM) | 0.012 (≈ 0.0286 µM) | 0.05 (≈ 0.119 µM) | 0.025 (≈ 0.0596 µM) | 0.025 (≈ 0.0596 µM) | 0.78 (≈ 1.86 µM) | 0.1 (≈ 0.238 µM) | 25 (≈ 0.0596 µM) | ≤ 0.003 | 0.2 (≈ 0.477 µM) | 0.1 (≈ 0.238 µM) | 0.012 (≈ 0.0286 µM) | 0.025 (≈ 0.0596 µM) | 6 (≈ 0.0143 µM) | 0.1 (≈ 0.238 µM) |  | 
4 | COc1c(N2C[C@H]3[C@H](C)C[C@@]3(N)C2)c(F)cc2c(=O)c(C(=O)O)cn([C@@H]3C[C@@H]3F)c12 [Example 5, 7-{(1S,5R,6R)-1-Amino-6-methyl-3-azabicyclo[3.2.0]hept-3-yl}-6-fluoro-1-[(1R,2S)-2-fluorocyclopropyl]-1,4-dihydro-8-methoxy-4-oxoquinoline-3-carboxylic acid] | 0.025 (≈ 0.0596 µM) | 0.025 (≈ 0.0596 µM) | 0.1 (≈ 0.238 µM) | 0.025 (≈ 0.0596 µM) | 0.05 (≈ 0.119 µM) | 0.78 (≈ 1.86 µM) | 0.2 (≈ 0.477 µM) | 25 (≈ 0.0596 µM) | 0.006 (≈ 0.0143 µM) | 0.2 (≈ 0.477 µM) | 0.2 (≈ 0.477 µM) | 0.025 (≈ 0.0596 µM) | 0.05 (≈ 0.119 µM) | 12 (≈ 0.0286 µM) | 0.1 (≈ 0.238 µM) |  | 
5 | Cc1c(N2C[C@]3(N)CCC[C@]3(F)C2)c(F)cc2c(=O)c(C(=O)O)cn([C@@H]3C[C@@H]3F)c12 [Example 17, 7-[(1R,5S)-1-Amino-5-fluoro-3-azabicyclo[3.3.0]octan-3-yl]-6-fluoro-1-[(1R,2S)-2-fluorocyclopropane]-1,4-dihydro-8-methyl-4-oxoquinoline-3-carboxylic acid] | 0.025 (≈ 0.0593 µM) | 0.006 (≈ 0.0142 µM) | 0.05 (≈ 0.119 µM) | 0.006 (≈ 0.0142 µM) | 0.006 (≈ 0.0142 µM) | 0.2 (≈ 0.475 µM) | 0.2 (≈ 0.475 µM) | ≤ 3 | 0.006 (≈ 0.0142 µM) | 0.05 (≈ 0.119 µM) | 0.1 (≈ 0.237 µM) | 0.025 (≈ 0.0593 µM) | 0.025 (≈ 0.0593 µM) | ≤ 3 | 0.012 (≈ 0.0285 µM) |  | 
6 | COc1c(N2C[C@@H]3CCCC[C@@]3(N)C2)c(F)cc2c(=O)c(C(=O)O)cn([C@@H]3C[C@@H]3F)c12 [Example 31, 7-[(1S,6S)-1-Amino-8-azabicyclo[4.3.0]nonan-8-yl]-6-fluoro-1-[(1R,2S)-2-fluorocyclopropyl]-8-methoxy-1,4-dihydro-4-oxoquinoline-3-carboxylic acid] | 0.05 (≈ 0.115 µM) | 0.012 (≈ 0.0277 µM) | 0.1 (≈ 0.231 µM) | 0.012 (≈ 0.0277 µM) |  | 0.39 (≈ 0.9 µM) | 0.1 (≈ 0.231 µM) | 6 (≈ 0.0138 µM) | 0.012 (≈ 0.0277 µM) | 0.1 (≈ 0.231 µM) | 0.2 (≈ 0.461 µM) | 0.025 (≈ 0.0577 µM) | 0.025 (≈ 0.0577 µM) |  | 0.05 (≈ 0.115 µM) | 0.025 (≈ 0.0577 µM) | 12 (≈ 0.0277 µM)
7 | C[C@H]1COc2c(N3C[C@@H]4CCCC[C@@]4(N)C3)c(F)cc3c(=O)c(C(=O)O)cn1c23 [Example 34, 10-[(1S,6S)-1-Amino-8-azabicyclo[4.3.0]nonan-8-yl]-9-fluoro-2,3-dihydro-3-(S)-methyl-7-oxo-7H-pyrido[1,2,3-de][1,4]benzoxazine-6-carboxylic acid] | 0.05 (≈ 0.125 µM) | 0.012 (≈ 0.0299 µM) | 0.1 (≈ 0.249 µM) | 0.006 (≈ 0.0149 µM) |  | 0.2 (≈ 0.498 µM) | 0.39 (≈ 0.972 µM) | 6 (≈ 0.0149 µM) | 0.025 (≈ 0.0623 µM) | 0.05 (≈ 0.125 µM) | 0.39 (≈ 0.972 µM) | 0.1 (≈ 0.249 µM) | 0.05 (≈ 0.125 µM) |  | 0.025 (≈ 0.0623 µM) | 0.012 (≈ 0.0299 µM) | 6 (≈ 0.0149 µM)
8 | COc1c(N2C[C@@H]3CC=CC[C@@]3(N)C2)c(F)cc2c(=O)c(C(=O)O)cn([C@@H]3C[C@@H]3F)c12 [Example 35, 7-[(1S,6S)-1-Amino-8-azabicyclo[4.3.0]non-3-en-8-yl]-6-fluoro-1-[(1R,2S)-2-fluorocyclopropyl]-1,4-dihydro-8-methoxy-4-oxoquinoline-3-carboxylic acid] | 0.05 (≈ 0.116 µM) | 0.025 (≈ 0.0579 µM) | 0.2 (≈ 0.464 µM) | 0.012 (≈ 0.0278 µM) |  | 0.39 (≈ 0.904 µM) | 0.2 (≈ 0.464 µM) | 6 (≈ 0.0139 µM) | 0.025 (≈ 0.0579 µM) | 0.1 (≈ 0.232 µM) | 0.39 (≈ 0.904 µM) | 0.05 (≈ 0.116 µM) | 0.05 (≈ 0.116 µM) |  | 0.05 (≈ 0.116 µM) | 0.025 (≈ 0.0579 µM) | 12 (≈ 0.0278 µM)
9 | COc1c(N2C[C@@H]3COCC[C@@]3(N)C2)c(F)cc2c(=O)c(C(=O)O)cn([C@@H]3C[C@@H]3F)c12 [Example 37, 7-[(1S,6S)-1-Amino-4-oxa-8-azabicyclo[4.3.0]nonan-8-yl]-6-fluoro-1-[(1R,2S)-2-fluorocyclopropyl]-1,4-dihydro-8-methoxy-4-oxoquinoline-3-carboxylic acid] | 0.012 (≈ 0.0276 µM) | 0.05 (≈ 0.115 µM) | 0.1 (≈ 0.23 µM) | 0.025 (≈ 0.0574 µM) |  | 1.56 (≈ 3.58 µM) | 0.05 (≈ 0.115 µM) | 6 (≈ 0.0138 µM) | 0.006 (≈ 0.0138 µM) | 0.2 (≈ 0.459 µM) | 0.39 (≈ 0.896 µM) | 0.05 (≈ 0.115 µM) | 0.05 (≈ 0.115 µM) |  | 0.1 (≈ 0.23 µM) | 0.025 (≈ 0.0574 µM) | ≤ 3
